Measurements as given in patent US8703811B2, “Small molecule inhibitors of Plasmodium falciparum dihydroorotate dehydrogenase” (Genzyme Corporation, priority 2008, dated 2014).
pEC50, pIC50: −log10 of the molar value. In brackets after ≈: the same amount, converted by molar mass. Like-named read-outs stand apart in the source and are kept apart here.

Experiments:
[1] = Log D measurement; format: physicochemical; conditions: octanol/water; read-out: LogD
Text: Many standard techniques are known in the art to establish the distribution coefficient of a compound between two particular solvents. The following description is one such technique that could be used to determine the distribution coefficient: The shake-flask method, which consists of dissolving some of the compound in a volume of octanol and water, then physically shaking the mixture and allowing the two solvents to fully separate. The concentration of the compound in each solvent is then measured. The most common method of measuring the distribution of the solute is by HPLC or UV/Vis spectroscopic techniques.

[2] = molecular target: Cytochrome P450 3A4 (Homo sapiens (Human), UniProt P08684); assay: Cytochrome P450 inhibition, 3A4; format: in vitro ADME
Text: (§1) Rapid screening for cytochrome P450 inhibitors is part of the current paradigm for avoiding development of drugs likely to give clinical pharmacokinetic drug-drug interactions and associated toxicities. There are commercially available assays for such screenings. For example, BD Biosciences (http://www.bdbiosciences.com/index.shtml) provides a technical bulletin describing a detailed, step-by-step procedure for the performance of the high throughput cytochrome P450 inhibition testing method.

[3] = molecular target: Cytochrome P450 2D6 (Homo sapiens (Human), UniProt P10635); assay: Cytochrome P450 inhibition, 2D6; format: in vitro ADME
Text: as §1

[4] = molecular target: Cytochrome P450 2C19 (Homo sapiens (Human), UniProt P33261); assay: Cytochrome P450 inhibition, 2C19; format: in vitro ADME
Text: as §1

[5] = Hepatic clearance, rat; format: in vitro ADME
Text: (§2) Clearance of drug by the liver will depend on the rate of delivery of drug to the liver (the hepatic blood flow) and on the efficiency of removal of drug which is presented to it (the extraction ratio). The hepatic clearance of compounds can be determined by standard methods known in the art. Such methods are described in, for example, Naritomi, Y; Terashita, S; Kagayama, A; Sugiyama, Y. “Utility of Hepatocytes in Predicting Drug Metabolism: Comparison of Hepatic Intrinsic Clearance in Rats and Humans in Vivo and in Vitro.” 2003, 31 (5): pages 580-588.

[6] = test system: P. falciparum Dd2; assay: Inhibition of in vitro P. falciparum culture, [3H]-hypoxanthine uptake, Dd2; format: cell-based; conditions: Plasmodium falciparum; for pEC50: DD2, Table 2b, read-out: Dd2 EC50; for pIC50: DD2, Table 3, [3H]-hypoxanthine uptake, read-out: Dd2 IC50
Summary of the method: (§3)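 Parasite growth inhibition measured as relative reduction of [3H]-hypoxanthine uptake in in vitro cultures. Values from non-linear regression fit, using relative growth velocity in place of product-formation rate.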

[7] = Permeability; format: in vitro ADME; conditions: Caco-2
Experimental: Permeability assays using the Caco-2 colon carcinoma cell line are being used throughout the pharmaceutical industry to estimate the ability of potential drug compounds to cross the intestinal epithelium. Caco-2 cell permeability studies are performed using Caco-2 cell monolayers grown on microporous membranes in multiwell insert systems. With the inserts suspended in the wells of multiwell plates, test compounds can be added to either the upper (apical) or lower (basolateral) chamber to measure permeability in the absorptive (apical to basolateral) or secretive (basolateral to apical) directions. Samples are then taken from the opposite chamber at various time intervals to measure the amount of test compound that has crossed the cell monolayer. A representative method to generate permeability data similar to that in Table 3 can be found in Alsenz, J; Haenel, E. “Development of a 7-Day, 96-Well Caco-2 Permeability Assay with High-Throughput Direct UV Compound Analysis.” Pharmaceutical Research 2003 20(12): p 1961-1969.
Parallel artificial membrane permeability assay (PAMPA) utilizes a simple phospholipid-coated filter disc to measure membrane permeability. It was developed as an alternative to the low throughput. Caco-2 cell permeability assay used to correlate passive permeability with in vivo oral absorption. A representative publication disclosing this method is Kerns, E H; Di, L; Petusky, S; Farris, M; Ley, R; Jupp, P. “Combined application of parallel artificial membrane permeability assay and Caco-2 permeability assays in drug discovery.” J. Pharma Sci. 2004, 93 (6), pages 1440-53.
Cell culture methods (e.g. Caco-2, HT-29 and MDC) and physicochemical methods such as PAMPA and immobilized artificial membrane (IAM) columns are known in the art and can be used to obtain data such as that in Table 3. Hidalgo, I J; “Assessing the absorption of new pharmaceuticals.” Curr Top Med. Chem. 2001 November; 1(5): p 385-401.

[8] = test system: P. falciparum 3D7; assay: Inhibition of in vitro P. falciparum culture, [3H]-hypoxanthine uptake, 3D7; format: cell-based; conditions: Plasmodium falciparum; for pEC50: 3D7, Table 2b, read-out: 3D7 EC50; for pIC50: 3D7, Table 3, [3H]-hypoxanthine uptake, read-out: 3D7 IC50
Summary of the method: as §3

[9] = molecular target: Cytochrome P450 1A2 (Homo sapiens (Human), UniProt P05177); format: in vitro ADME
Text: as §1

[10] = Solubility measurement; format: physicochemical; conditions: aqueous buffer, thermodynamic from solid; read-out: Solubility
Text: Many standard techniques are known in the art to establish the solubility of a compound in a particular solvent. The following description is one such technique that could be used to determine the solubility: Equilibrium solubility measurements start with the solid form of the compound (crystalline form preferred). The powder is physically mixed with an aqueous buffer (defined pH) until equilibrium is reached. Either centrifugation or filtration can be used to separate the solution from the remaining solid. The amount dissolved in the solution can be determined by any one of many known methods including HPLC or UV/Vis spectroscopic techniques.

[11] = molecular target: hsDHODH (Homo sapiens (Human), UniProt Q02127); assay: DCIP assay, hsDHODH; format: biochemical; conditions: Table 3; DCIP assay, 20 nM hsDHODH; read-out: hsDHODH IC50
Text: Type 2 DHODH activity was monitored with either the direct assay measuring the formation of orotate or via a chromogen reduction assay using DCIP. Although the extinction coefficient and absorption wavelength are preferable for the chromogen reduction assay, the inorganic electron acceptor DCIP can be utilized by DHODH as the final electron acceptor in lieu of CoQn when the endogenous substrate is at a low concentration. As such, the direct assay was used to measure the binding affinity of pfDHODH to CoQD and L-DHO. The enzymatic reaction was performed by varying the L-DHO concentration (1-400 μM) or CoQD concentration (1-200 μM) while keeping the other substrate constant and in excess. The formation of orotate was measured continuously at 296 nm (ε296=4.3 mM^−1 cm^−1). Inhibition of DHODH by small molecules was evaluated using the chromogen based assay with a final substrate concentration of 200 μM L-DHO, 18 μM CoQD, and 100 μM DCIP, unless otherwise noted. The reduction of DCIP was monitored at 600 nm (ε600=18.8 mM^−1 cm^−1).
Substrate specificity and enzyme inhibition data was analyzed with GraphPad Prism Version 4 for Windows (GraphPad Software). Kinetic constants were calculated by non-linear regression fitting of the data to the Michaelis-Menten equation [36]. IC50 values were determined by non-linear regression fitting of the data to Equation 1: […]

[12] = molecular target: Cytochrome P450 2C9 (Homo sapiens (Human), UniProt P11712); assay: Cytochrome P450 inhibition, 2C9; format: in vitro ADME
Text: as §1

[13] = molecular target: pfDHODH (Plasmodium falciparum (isolate 3D7), UniProt Q08210); assay: DHODH chromogen reduction (DCIP) assay, pfDHODH; format: biochemical, P. falciparum; conditions: read-out: pfDHODH IC50
[14] = Hepatic clearance, human; format: in vitro ADME
Text: as §2

[15] = Table 3, DCIP assay, 20 nM pfDHODH

Cytochrome P450 1A2, sequence (P05177 whole entry): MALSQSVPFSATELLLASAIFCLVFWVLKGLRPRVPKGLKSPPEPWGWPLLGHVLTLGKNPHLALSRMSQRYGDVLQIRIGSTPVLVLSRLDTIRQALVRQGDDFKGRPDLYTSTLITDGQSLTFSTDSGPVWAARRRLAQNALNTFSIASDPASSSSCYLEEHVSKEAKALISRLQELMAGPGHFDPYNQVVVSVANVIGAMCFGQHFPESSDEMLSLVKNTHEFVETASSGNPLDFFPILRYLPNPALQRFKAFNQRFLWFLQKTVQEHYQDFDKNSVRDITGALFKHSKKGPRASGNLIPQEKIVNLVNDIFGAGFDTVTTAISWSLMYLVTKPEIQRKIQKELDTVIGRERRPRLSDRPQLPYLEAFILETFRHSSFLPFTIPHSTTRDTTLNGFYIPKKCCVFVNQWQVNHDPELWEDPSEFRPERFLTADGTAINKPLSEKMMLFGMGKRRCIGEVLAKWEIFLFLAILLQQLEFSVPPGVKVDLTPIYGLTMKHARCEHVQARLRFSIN
Cytochrome P450 2C9, sequence (P11712 whole entry): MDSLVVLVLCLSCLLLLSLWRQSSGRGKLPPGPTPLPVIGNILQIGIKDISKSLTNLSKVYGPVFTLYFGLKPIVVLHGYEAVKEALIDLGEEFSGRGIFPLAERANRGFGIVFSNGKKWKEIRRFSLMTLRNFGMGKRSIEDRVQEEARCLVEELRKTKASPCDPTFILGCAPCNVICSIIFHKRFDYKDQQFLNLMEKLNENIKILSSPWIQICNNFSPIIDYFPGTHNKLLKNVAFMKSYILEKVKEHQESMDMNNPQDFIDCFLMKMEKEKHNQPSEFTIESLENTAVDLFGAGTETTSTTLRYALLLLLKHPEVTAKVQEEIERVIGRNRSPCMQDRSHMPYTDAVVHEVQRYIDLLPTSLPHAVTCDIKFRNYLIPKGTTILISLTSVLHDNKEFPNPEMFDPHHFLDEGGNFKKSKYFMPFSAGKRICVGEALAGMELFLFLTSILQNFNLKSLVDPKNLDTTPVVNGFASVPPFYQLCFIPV
Cytochrome P450 2D6, sequence (P10635 whole entry): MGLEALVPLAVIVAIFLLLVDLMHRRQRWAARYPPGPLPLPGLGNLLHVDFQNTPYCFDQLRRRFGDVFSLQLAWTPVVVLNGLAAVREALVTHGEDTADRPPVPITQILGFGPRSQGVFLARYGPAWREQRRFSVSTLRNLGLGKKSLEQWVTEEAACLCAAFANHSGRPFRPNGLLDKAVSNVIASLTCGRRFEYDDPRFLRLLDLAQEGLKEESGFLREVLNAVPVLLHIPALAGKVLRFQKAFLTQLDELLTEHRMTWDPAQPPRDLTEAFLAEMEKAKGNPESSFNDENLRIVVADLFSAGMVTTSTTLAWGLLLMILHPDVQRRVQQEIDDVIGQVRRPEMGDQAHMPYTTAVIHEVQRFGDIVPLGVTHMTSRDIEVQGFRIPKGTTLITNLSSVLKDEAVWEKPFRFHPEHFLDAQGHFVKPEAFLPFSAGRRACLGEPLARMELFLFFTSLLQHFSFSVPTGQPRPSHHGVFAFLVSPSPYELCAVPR
Cytochrome P450 2C19, sequence (P33261 whole entry): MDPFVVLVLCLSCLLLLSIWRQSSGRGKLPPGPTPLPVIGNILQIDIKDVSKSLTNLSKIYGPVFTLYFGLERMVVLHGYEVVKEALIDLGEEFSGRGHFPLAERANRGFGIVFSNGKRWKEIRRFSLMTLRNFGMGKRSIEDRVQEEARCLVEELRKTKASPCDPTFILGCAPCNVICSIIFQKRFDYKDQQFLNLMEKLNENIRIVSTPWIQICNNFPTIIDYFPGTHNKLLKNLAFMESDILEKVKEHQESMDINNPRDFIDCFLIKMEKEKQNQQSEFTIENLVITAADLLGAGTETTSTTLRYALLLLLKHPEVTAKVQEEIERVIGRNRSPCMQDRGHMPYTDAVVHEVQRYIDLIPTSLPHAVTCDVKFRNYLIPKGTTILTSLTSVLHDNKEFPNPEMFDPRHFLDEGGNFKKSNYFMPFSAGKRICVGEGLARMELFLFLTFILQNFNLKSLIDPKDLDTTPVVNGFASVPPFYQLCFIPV
pfDHODH, sequence (Q08210 159-565 limits assumed): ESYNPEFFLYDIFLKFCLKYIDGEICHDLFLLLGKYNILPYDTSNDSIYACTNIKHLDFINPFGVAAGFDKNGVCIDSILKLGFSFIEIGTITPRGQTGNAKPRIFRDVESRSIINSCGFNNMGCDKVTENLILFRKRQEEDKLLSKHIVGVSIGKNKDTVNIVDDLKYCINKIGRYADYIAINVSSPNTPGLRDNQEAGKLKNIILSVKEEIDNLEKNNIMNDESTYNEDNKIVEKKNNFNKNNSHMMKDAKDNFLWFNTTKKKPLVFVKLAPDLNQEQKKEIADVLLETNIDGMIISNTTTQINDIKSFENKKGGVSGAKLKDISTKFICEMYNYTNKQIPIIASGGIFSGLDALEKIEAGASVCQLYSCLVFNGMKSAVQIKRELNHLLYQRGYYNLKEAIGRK
Cytochrome P450 3A4, sequence (P08684 whole entry): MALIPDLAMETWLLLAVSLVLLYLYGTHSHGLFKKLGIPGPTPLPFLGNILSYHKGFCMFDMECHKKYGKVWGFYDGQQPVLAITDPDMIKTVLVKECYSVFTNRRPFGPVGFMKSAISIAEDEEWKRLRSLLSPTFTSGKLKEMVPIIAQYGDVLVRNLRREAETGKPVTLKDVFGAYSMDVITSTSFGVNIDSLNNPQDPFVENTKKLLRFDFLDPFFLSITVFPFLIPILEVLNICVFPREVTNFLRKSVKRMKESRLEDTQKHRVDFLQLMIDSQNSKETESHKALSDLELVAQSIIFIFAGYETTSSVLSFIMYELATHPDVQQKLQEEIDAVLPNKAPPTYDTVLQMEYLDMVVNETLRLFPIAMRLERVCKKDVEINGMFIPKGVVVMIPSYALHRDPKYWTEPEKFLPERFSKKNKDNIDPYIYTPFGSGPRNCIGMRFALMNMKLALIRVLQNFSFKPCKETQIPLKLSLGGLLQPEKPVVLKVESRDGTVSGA
hsDHODH, sequence (Q02127 29-395 limits assumed): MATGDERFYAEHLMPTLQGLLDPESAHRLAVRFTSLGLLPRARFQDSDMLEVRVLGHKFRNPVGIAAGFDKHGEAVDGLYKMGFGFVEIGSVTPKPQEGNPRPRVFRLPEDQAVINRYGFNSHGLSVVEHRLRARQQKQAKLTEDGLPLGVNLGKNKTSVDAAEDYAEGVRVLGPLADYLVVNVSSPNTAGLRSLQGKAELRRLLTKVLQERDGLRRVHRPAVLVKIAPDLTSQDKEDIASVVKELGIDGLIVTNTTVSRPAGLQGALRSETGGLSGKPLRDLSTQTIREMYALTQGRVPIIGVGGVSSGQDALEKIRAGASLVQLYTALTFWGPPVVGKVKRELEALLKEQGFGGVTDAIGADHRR

| Compound | logD [1] | Cytochrome P450 Inhibition, 3A4 [2] | Cytochrome P450 Inhibition, 2D6 [3] | Cytochrome P450 Inhibition, 2C19 [4] | microsomal CLint [5] | pEC50 [6] | pIC50 [6] | Papp [7] | pEC50 [8] | pIC50 [8] | Cytochrome P450 Inhibition, 1A2 [9] | solubility [10] | pIC50 [11] | Cytochrome P450 Inhibition, 2C9 [12] | pIC50 ([13]; Table 2b) | pIC50 [13, 15] | microsomal CLint [14] |
| --- | --- | --- | --- | --- | --- | --- | --- | --- | --- | --- | --- | --- | --- | --- | --- | --- | --- |
| CCCNC(=O)c1ccc(N2CCCCC2)s1 [Compound 8, 5-(piperidin-1-yl)-N-propylthiophene-2-carboxamide] | 3.2 | >5.0 in 3A4 μM | >5.0 in 2D6 μM | >5.0 in 2C19 μM | > 119 µL/min/mg | < 5.00 | < 5.00 | 43 ×10⁻⁶ cm/s | < 5.00 | < 5.00 | >5.0 in 1A2 μM | > 30 µg/mL | < 4.52 | >5.0 in 2C9 μM | 3.64 | < 4.52 | > 72 µL/min/mg |
| CCCNC(=O)c1ccc(-n2cccn2)s1 [Compound 9, N-propyl-5-(1H-pyrazol-1-yl)thiophene-2-carboxamide] | 2.2 | >5.0 in 3A4 μM | >5.0 in 2D6 μM | >5.0 in 2C19 μM | 104 µL/min/mg | < 5.00 | < 5.00 | 22 ×10⁻⁶ cm/s | < 5.00 | < 5.00 | >5.0 in 1A2 μM | > 30 µg/mL | < 4.52 | >5.0 in 2C9 μM | < 3.60 | < 4.52 | 59 µL/min/mg |
| CCCNC(=O)c1ccc(N2CCN(C)CC2)s1 [Compound 10, 5-(4-methylpiperazin-1-yl)-N-propylthiophene-2-carboxamide] | 1.5 | >5.0 in 3A4 μM | >5.0 in 2D6 μM | >5.0 in 2C19 μM | 16 µL/min/mg | < 5.00 | < 5.00 | 11 ×10⁻⁶ cm/s | < 5.00 | < 5.00 | >5.0 in 1A2 μM | 24 µg/mL (≈ 89.8 µM) | – | >5.0 in 2C9 μM | < 3.60 | < 4.52 | 8 µL/min/mg |
